Reference: paper PMC7261172, “Peptides containing the PCNA interacting motif APIM bind to the β-clamp and inhibit bacterial growth and mutagenesis” (Nucleic Acids Research, 2020)
Converted amounts (≈) assume the structure as drawn. Read-outs that look alike come from different tables or passages of the source.

Assays:
S.aureus FDA486 = test: microbe, parasite or virus in culture; type: cell-based, Staphylococcus aureus
Procedure: (§1) Briefly, bacterial suspension in Mueller-Hinton Broth was adjusted to 0.5 McFarland and diluted to 5 × 10^5 CFU/ml. The suspension (0.1 ml) was seeded in polypropylene microtiter plates (Greiner), 5 × 10^4 CFU/well. APIM-peptides were added as 10% of the total volume. Initial inoculums were quantified by seeding on agar for verification of the estimated CFU/mL. After 24 hours (h) incubation at 37°C, the microtiter plates were inspected for visible growth.
(§2) Determination of minimal inhibitory concentrations (MICs) for S. aureus was done at Statens Serum Institute, Copenhagen, Denmark.

S.aureus ATCC 29213 = test: microbe, parasite or virus in culture; type: cell-based, Staphylococcus aureus
Procedure: as §1, §2

β-clamp [1] = details: read-out: KD for the β-clamp; cited from earlier work
Description: Next, we examined the direct interaction between the β-clamp and octamer peptides containing RWLVK and RALVK (i.e. without the cell penetrating part of the peptide) by SPR.

β-clamp [2] = details: peptide:β-clamp 100:5 μM (RWLVK, RALVK octamers) or 50:20 μM (Pol III peptide); 298 K, pH 7.4
Procedure: All NMR spectra were recorded in a standard 5 mm NMR tube at 298 K in 20 mM NaH2PO4, 100 mM NaCl, pH 7.4, 0.25 mM DSS, 10% D2O on a Bruker AVANCE III 800-MHz (^1H) spectrometer equipped with a room temperature probe. Free induction decays were transformed and analyzed in Topspin (Bruker Biospin) and the aromatic region assigned.

S.epidermidis (MRSE) = type: cell-based, Staphylococcus epidermidis; details: 24 h
Procedure: as §1

E. coli BL21 [3] = type: cell-based, Escherichia coli; details: Mueller-Hinton Broth, 5 × 10^5 CFU/ml, 24 h, 37°C; average of ≥3 independent biological experiments
Procedure: as §1

E. coli MG1655 [4] = type: cell-based, Escherichia coli; details: Mueller-Hinton Broth, 5 × 10^5 CFU/ml, 24 h, 37°C; average of ≥3 independent biological experiments
Procedure: as §1

E.coli β-clamp = molecular target: T1, E.coli β-clamp (Escherichia coli, UniProt P0A988); test: Microscale thermophoresis (MST) β-clamp binding
T1 construct: made in house
Procedure: Purified E.coli β-clamp ([49]) was labeled using the RED-Maleimide Labelling Kit (NanoTemper Technologies, GmbH) according to the manufacturer's instructions applying a concentration of 20 μM protein at room temperature. The ligands, cell penetrating APIM-peptides, were dissolved and diluted in supplemented Microscale thermophoresis (MST) buffer (50 mM Tris–HCl pH 7.5, 150 mM NaCl, 10 mM MgCl2) with 2% fetal bovine serum and incubated for 10 min in room temperature. Series of 1:1 dilutions (16×), producing ligand concentrations ranging from 500 μM to 15 nM, were made. Each ligand solution was further diluted 1:1 with fluorescent labeled β-clamp (diluted in MST buffer, 3 nM) and incubated for 10 min. Fluorescence was measured for each protein-ligand sample using a Monolith NT.115 instrument (20% MST power and 100% LED power) and Monolith NT Standard Treated Capillaries (both NanoTemper Technologies, GmbH). To calculate the KD’s, fluorescence signals were plotted and analyzed using the supplemented software (NT Analysis software version 1.5.41 and MO.affinity analysis version 2.2.4, NanoTemper Technologies). Denaturation with SD-buffer (4% sodium dodecyl sulphate and 40 mM DTT) and re-measurement of total fluorescence confirmed that the observed change in fluorescence was due to ligand binding event.

E. coli MG1655 [5] = test: Rif^R mutagenicity assay, added cell penetrating peptides; type: cell-based, Escherichia coli; details: for Mutation frequency, added peptides: spontaneous, E. coli MG1655, cell penetrating peptide 20 μM, average ± SEM, RWLVK n = 11, RFSLK n = 4, RWLK n = 7, R11 n = 5, control 10.5 ± 2.2
Procedure: (§3) The rifampicin resistance (Rif^R) mutagenicity assay was performed as described in ([50]) with some modifications. Briefly, E. coli BL21 expressing peptide variants were induced with (IPTG) (1 mM) at OD600 = 0.3–0.4 and cultured at 37°C, for 2 h before harvested. Bacteria from large culture volumes (up to 50 ml) were plated in order to obtain ∼100 Rif^R colonies per dish. The anti-mutagenic effect of cell penetrating APIM-peptides in E. coli MG1655 was done by adding 20 μM peptide at OD600 = 0.01, and the cells were cultured for 30 min. Next, the cells were pelleted and washed with PBS before UV-irradiated in (50 μl) PBS (2 mJ UVC/cm^2), re-suspended in 2.5 ml LB and cultured in 37°C for 2 h before plating on LB plates with and without Rif (100 μg/ml). The number of Rif^R colonies/ total CFU was determined after 1 and 2 days, respectively. Significance was calculated by using a two-tailed, paired, students t-test. Gentamicin resistance (Gen^R) was examined using a gentamicin sensitive clinical isolate of S. epidermidis. […] The cultures were grown in a shaking incubator (37°C) and were re-inoculated (1:100) every 24 h in fresh TSB and supplements. The cultures were plated on blood agar plates with and without gentamicin (10 mg/l) every day for 4 days, and the frequency of Gen^R colonies was determined by calculating the number of Gen^R colonies/total CFU.

WT β-clamp = test: SPR analysis, immobilized WT β-clamp; type: binding, Escherichia coli; details: 4-128 μM peptide, single-cycle mode, 25°C, PBS P+ pH 7.4; Figure 2A
Procedure: (§4) The experiment was performed with Biacore S200 (GE Healthcare), at 25°C with a flowrate of 30 μl/min. Purified WT and mutant β-clamp protein were immobilized by amine coupling on CM5 Series S sensor chips (GE Healthcare).
(§5) Octamer peptides containing APIM motifs (underlined) [sequence] and [sequence] were diluted in running buffer (PBS P+ buffer: 20 mM phosphate buffer pH 7.4, 3 mM KCl, 137 mM NaCl, 0.05% surfactant P20) at 4, 8, 16, 32, 64 and 128 μM, and analyzed by single-cycle mode. Six consecutive injections of alternating running buffer or peptide in running buffer, with an association phase of 120 seconds (s) followed by a dissociation phase of 60 s and a final dissociation phase of 600 s, were run for each β-clamp protein variant. The running buffer series were used as blanks together with the signal from the reference channels for double-reference subtraction. After each series of six injections, the sensor chip was washed with a 120 s regeneration injection of 1 M NaCl followed by a 120 s injection of running buffer. The sensorgrams were processed (reference subtracted) with Biacore S200 Evaluation Software Version 1.1 (GE Healthcare) and normalized according to the immobilized level.

[6] = tested on: mutant β-clamps (H148K, M362D, V151A, P363D, P242D, V247F); test: SPR analysis, immobilized mutant β-clamps; type: binding, Escherichia coli; details: Figure 2B
Procedure: as §4, §5

[7] = tested on: E. coli MG1655 WT and TLS deletion mutant cells; test: Rif^R mutagenicity assay in WT and TLS deletion strains; type: cell-based, Escherichia coli; details: peptide 20 μM
Description: S. aureus: ATCC 29213, FDA486, methicillin-resistant S. aureus strain (MRSA) 43484 and FusA88779; S. epidermidis: clinical isolates (including one gentamicin sensitive strain and several multidrug-resistant strains) from Department of Microbiology, St. Olavs University Hospital, Trondheim, Norway, kindly provided by professor Kåre Bergh; Escherichia coli: strains DH5α, BL21 (RIPL) DE3 (Novagen), K12 (MG1655) wild type (WT) and TLS deletion strains (ΔPol II^3, ΔPol IV^1, ΔPol V^1, ΔPol II/IV^3, ΔPol II/V^3, ΔPol IV/V^2 and ΔPol II/IV/V^3). ^1 Keio collection, ^2 generated by Prof Magnar Bjørås’ group, UiO and ^3prepared as described ([43]). Briefly, polB was inactivated in E. coli MG1655 WT, ΔPol IV, ΔPol V and ΔPol IV/V using JW0059:: polB. A phage stock (T4GT7) diluted in T4 buffer was added to the JW0059::polB culture, incubated and plated on LB agar plates. The lysate was harvested and added to 2 ml T4 buffer and 0.2 ml CHCl3 (T4GT7 lysate). The mixture was centrifuged, and supernatant stored at 4°C over 20 μl CHCl3. 0.5 ml overnight culture of the recipient cells was re-suspended in 1 ml of T4 buffer and aliquoted. The T4GT7 lysate (10^−1, 10^−2, 10^−3 and 10^−4 dilutions) was added to the aliquots, incubated for 25 minutes (min) at room temperature and plated on LB-agar plates with kanamycin. Colonies obtained were re-streaked twice to obtain a pure culture. Kanamycin resistance cassettes replacing the deleted polB genes were removed by an FLP-recombinase expressed by pCP20 plasmid.
as §3

S.aureus (MRSA) 43484 = type: cell-based, Staphylococcus aureus
Procedure: as §1, §2

S.aureus FusA88799 = type: cell-based, Staphylococcus aureus; details: n = 3
Procedure: as §1, §2

E. coli BL21 [8] = test: Overexpression (viability) assay; type: cell-based, Escherichia coli; details: IPTG 1 mM; 2 and 8 h after induction; peptide without cell penetrating part (MD-APIM-GILQSTLA); Figure 1D, Suppl. S1A
Procedure: A stop codon is found in the multiple cloning site after the NcoI/NheI site. The sequence over-expressed is MD-APIM-[…].
Induction was performed using isopropyl β-D-1-thiogalactopyranoside (IPTG) (1 mM) at OD600 = 0.3 - 0.4. Bacterial growth was measured by OD600 or the number of colony-forming units (CFU) per ml.

E. coli BL21 [9] = test: Rif^R mutagenicity assay, overexpressed peptides; type: cell-based, Escherichia coli
Procedure: as §3

[10] = molar form of the μg/ml MIC, n = 3
[11] = molar form of the μg/ml MIC (RWLVK MW = 3674 Da, ciprofloxacin MW = 313 Da), n = 3
[12] = Mueller-Hinton Broth, 5 × 10^5 CFU/ml, 37°C, average of ≥3 independent biological experiments

T1 sequence (P0A988 whole entry): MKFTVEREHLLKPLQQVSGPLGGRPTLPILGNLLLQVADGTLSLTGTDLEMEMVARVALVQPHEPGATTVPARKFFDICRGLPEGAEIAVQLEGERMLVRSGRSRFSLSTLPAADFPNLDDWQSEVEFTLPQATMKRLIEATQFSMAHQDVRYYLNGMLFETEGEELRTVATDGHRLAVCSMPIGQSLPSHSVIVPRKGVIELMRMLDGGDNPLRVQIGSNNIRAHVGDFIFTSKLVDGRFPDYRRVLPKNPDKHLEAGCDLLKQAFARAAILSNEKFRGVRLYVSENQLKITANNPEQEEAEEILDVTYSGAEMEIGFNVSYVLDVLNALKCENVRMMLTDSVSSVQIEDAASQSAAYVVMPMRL

O=C(O)c1cn(C2CC2)c2cc(N3CCNCC3)c(F)cc2c1=O [Ciprofloxacin, reference compound]
MIC (S.aureus FDA486; Staphylococcus aureus, FDA486, Mueller-Hinton Broth, 5 × 10^5 CFU/ml, 24 h, 37°C, visible growth, n = 3, read-out: Minimal Inhibitory Concentration (MIC) S.aureus FDA486): 0.25 µg/mL (≈ 0.754 µM) | Minimal Inhibitory Concentration (MIC) S.aureus FDA486 (S.aureus FDA486; [10]): 0.8 µM | MIC (S.aureus ATCC 29213; Staphylococcus aureus, ATCC29213, Mueller-Hinton Broth, 5 × 10^5 CFU/ml, 24 h, 37°C, visible growth, same result in three biological replicates (n = 3), read-out: Minimal Inhibitory Concentration (MIC) S.aureus ATCC 29213): 0.5 µg/mL (≈ 1.51 µM) | Minimal Inhibitory Concentration (MIC) S.aureus ATCC 29213 (S.aureus ATCC 29213; [11]): 1.5 µM

Ac-EQVELEFD [Pol III peptide]
Kd (β-clamp [1]): ~2 µM

Ac-MDAWLVKW
Binding to β-clamp by 1D 1H NMR (line broadening, chemical shift or intensity change) (β-clamp [2]): could not detect any binding

Ac-MDRALVKWKKKRKIRRRRRRRRRRR-NH2 [RALVK]
Minimal Inhibitory Concentration (MIC) S.epidermidis (MRSE) (S.epidermidis (MRSE); [12]): 3 µM | Minimal Inhibitory Concentration (MIC) E. coli BL21 (E. coli BL21 [3]): 5 µM | Minimal Inhibitory Concentration (MIC) E. coli MG1655 (E. coli MG1655 [4]): 9 µM | Kd (E.coli β-clamp; cell penetrating peptides, MST buffer with 2% fetal bovine serum, initial in vitro binding experiments, bounds given, read-out: KD for the β-clamp (MST)): > 750 µM

Ac-MDRWLKWKKKRKIRRRRRRRRRRR-NH2 [RWLK]
Minimal Inhibitory Concentration (MIC) S.epidermidis (MRSE) (S.epidermidis (MRSE); [12]): 4 µM | Minimal Inhibitory Concentration (MIC) E. coli BL21 (E. coli BL21 [3]): 6 µM | Minimal Inhibitory Concentration (MIC) E. coli MG1655 (E. coli MG1655 [4]): 12 µM | KD for the β-clamp (MST) (E.coli β-clamp; cell penetrating peptides, MST buffer with 2% fetal bovine serum, initial in vitro binding experiments, bounds given): no binding was detected | Mutation frequency, added peptides (E. coli MG1655 [5]): 7.7 ± 3.3 Rif^R/10^8 CFU

Ac-MDRWLVKW [octamer peptide containing APIM, without the cell penetrating part]
Binding of octamer peptide to WT β-clamp (SPR) (WT β-clamp): bound stronger | Binding to β-clamp by 1D 1H NMR (line broadening, chemical shift or intensity change) (β-clamp [2]): visual line broadening | Binding of peptide to all β-clamp variants (SPR) ([6]; H148K, M362D, V151A, P363D, P242D, V247F versus WT): reduced ability to bind | Reduced binding of peptide to β-clamp V247F (SPR) ([6]; β-clampV247F versus WT): ~50%

Ac-MDRWLVKWKKKRKIRRRRRRRRRRR-NH2 [RWLVK]
Effect on mutation frequency after UV-damage in all Pol V containing strains ([7]; UV 2 mJ/cm^2, Figure 4C): reduced the mutation frequency | Effect on mutation frequency after UV-irradiation in the ΔPol IV/V strain ([7]; UV 2 mJ/cm^2, Figure 4C): reduction in the mutation frequency | Effect on spontaneous mutation frequency in wild type (WT) ([7]; n = 8–10, Figure 4C): significantly reduced | Effect on mutation frequency in the TLS deficient ΔPol II/IV/V strain ([7]; under any conditions (spontaneous and UV)): No reduction of mutation frequency | Effect on spontaneous mutation frequency in the ΔPol II/V strain ([7]; Figure 4C): increased mutation frequency | Minimal Inhibitory Concentration (MIC) S.aureus (MRSA) 43484 (S.aureus (MRSA) 43484; 43484, 24 h): 10 µg/mL | Minimal Inhibitory Concentration (MIC) S.aureus (MRSA) 43484 (S.aureus (MRSA) 43484; [10]): 3 µM | Minimal Inhibitory Concentration (MIC) S.aureus FusA88799 (S.aureus FusA88799; Mueller-Hinton Broth, 5 × 10^5 CFU/ml, 24 h, 37°C, visible growth): 10 µg/mL | Minimal Inhibitory Concentration (MIC) S.aureus FusA88799 (S.aureus FusA88799; molar form of the μg/ml MIC): 3 µM | Minimal Inhibitory Concentration (MIC) S.epidermidis (MRSE) (S.epidermidis (MRSE)): 3 µM | Minimal Inhibitory Concentration (MIC) S.aureus FDA486 (S.aureus FDA486; FDA486, 24 h): 10 µg/mL | Minimal Inhibitory Concentration (MIC) S.aureus FDA486 (S.aureus FDA486; [10]): 3 µM | Minimal Inhibitory Concentration (MIC) S.aureus ATCC 29213 (S.aureus ATCC 29213; ATCC 29213, 24 h): 10 µg/mL | Minimal Inhibitory Concentration (MIC) S.aureus ATCC 29213 (S.aureus ATCC 29213; [11]): 3 µM | Minimal Inhibitory Concentration (MIC) E. coli BL21 (E. coli BL21 [3]): 5 µM | Minimal Inhibitory Concentration (MIC) E. coli MG1655 (E. coli MG1655 [4]): 11 µM | Kd (E.coli β-clamp): < 50 µM | Effect on UV-induced mutation frequency (E. coli MG1655 [5]; E. coli MG1655, peptide 20 μM, 2 mJ UVC/cm^2, Figure 4A): reduced the mutation frequency | Mutation frequency, added peptides (E. coli MG1655 [5]): 5.9 ± 2.3 ** Rif^R/10^8 CFU

MD-RALVK- GILQSTLA [RALVK (overexpressed)]
Effect of peptide overexpression on bacterial growth (CFU/ml relative to uninduced culture; OD600) (E. coli BL21 [8]): did not inhibit bacterial growth

MD-RWLK- GILQSTLA [RWLK (overexpressed)]
Effect of overexpression on the mutation frequency (E. coli BL21 [9]; E. coli BL21, spontaneous): did not affect the mutation frequency | Mutation frequency, overexpressed peptides (E. coli BL21 [9]; spontaneous, E. coli BL21, IPTG 1 mM, 2 h, average ± SEM, RWLVK n = 5, RFSLK n = 5, RWLK n = 6, control 2.5 ± 0.4): 3.8 ± 1.2 Rif^R/10^8 CFU | Effect of peptide overexpression on bacterial growth (CFU/ml relative to uninduced culture; OD600) (E. coli BL21 [8]): did not inhibit bacterial growth
